From patent publication US20240197761A1, “FUCOSYLATION AND IMMUNE MODULATION IN CANCER” (H. LEE MOFFITT CANCER CENTER AND RESEARCH INSTITUTE, INC., priority 2021, published 2024)

Tests used:
[1] = system: PD-L1 on WM793, SW1 and SM1 cells; experiment: Cell surface PD-L1 (flow cytometry); type: cell-based; details: human or mouse melanoma cells, 250 μM
Excerpt: FIGS. 22A-221 show Schematic of L-PLA staining and verification of fucosylated HLA-DRB1 staining, which is weakly associated with tumor peripheral CD4+T cells; and the effects of L-fucose on tumor PD-L1 expression (a) Schematic of lectin-mediated proximity ligation analysis (L-PLA) using fucosylated HLA-DRB1 (fuco-HLA-DRB1) as an example. We stained for (i) HLA-DRB1 using […]-HLA-DRB1 followed by (+) oligo-conjugated PLA secondary and (ii) fucosylated glycan using biotinylated (“B”) AAL lectin followed by D-biotin followed by (−) oligo-conjugated PLA secondary. Ligated PLA oligos were subjected to rolling circle amplification PCR (RCA PCR), giving rise to fluorescent punctae. […] Single melanoma marker, AAL-FITC, and HLA-DRB1 channels are shown in white for clearer visualization. […] (d) FFPE melanoma tissues were subjected to L-PLA HLA-DRB1 staining ±500 mM L-fucose wash and subsequent staining with melanoma marker (MART1+SI10 cocktail), and DAPI. Single melanoma marker and fuco-HLA-DRB1 channels are shown in white for clear visualization. […]
HLA-DRB1, and PD-L1: Indicated cells were treated for 72 h with DMSO, 250 μM fucosyltransferase inhibitor (FUTi) (Millipore Sigma (St. Louis, MO)), or 250 μM of L-fucose (Biosynth (Oak Terrace, IL)). […] Samples were analyzed using FlowJo analysis software (BD Biosciences (San Jose, CA)). […]

SM1 tumors = experiment: Immunodepletion mouse model (CD4+ or CD8+ T cell depletion), SM1; type: in vivo, C57BL6 mice; details: CD4+ but not CD8+T cell depletion
Excerpt: Total TILs were gated first to single cells (based on forward scatter height vs width, followed by side scatter height vs. width). Live cells were gated from the Zombie negative population from the population above. TILs were gated based on splenocyte size from a control spleen. Individual immune subpopulations were sub-gated from the total TIL population using the following staining criteria: CD3+ for CD3+ T cells; CD3+/CD4+/CD8− for CD4+T cells; CD3+/CD4−/CD8+ for CD8+ T cells, CD11c+/CD11b+ for DCs; either NK1.1 (for C57/BL6 mice) or DX5 (for C3H/HeJ) for NK cells; CD11b+/GR1+ for MDSC-like cells; and F4/80+ for macrophages. Single-cell suspensions from tumor and spleen tissue were stained with Live/Dead Zombie NIR (Biolegend, (San Diego, CA)) at 1:1,000 in PBS for 20 min. Cell suspensions were spun down and stained with the following with antibodies at 0.5 μg/ml per antibody: APC anti-mouse CD3, Pacific Blue anti-mouse CD4, BV785 anti-mouse CD8, PerCP anti-mouse CD25, FITC anti-mouse F4/80, PeCy7 anti-mouse CD11c, PE anti-mouse NK1.1 or PE anti-mouse DX5, and PerCP-Cy5.5 anti-mouse CD11 b. After staining, the cells were washed and fixed (2% formaldehyde), followed by another wash and flow cytometric analysis. The compensation controls were prepared using 0.5 μg/mL of each antibody with UltraComp eBeads, (ThermoFisher Scientific (Waltham, MA)). […]

C[C@H](O)[C@@H](O)[C@@H](O)[C@H](O)C=O [L-fucose]
cell surface levels of PD-L1 [1]: does not alter | L-fuc-triggered tumor suppression and increases in total itICs (SM1 tumors): abrogated
